The assay concerns the target SARS-CoV-2 M^pro (Severe acute respiratory syndrome coronavirus 2 (2019-nCoV) (SARS-CoV-2), UniProt P0DTD1). Briefly: biochemical. Conditions: for IC50: compounds evaluated at 0.015-300 μM.
Setting [1] is: read-out: Activity (% enzyme activity by fluorescence relative to initial enzyme activity), compound at 17 μM, duplicates, 20 min pre-incubation.
[2] abbreviates: compound at 17 μM, duplicates, 20 min pre-incubation.

This is an account of results in US20240016777A1, “COMPOUNDS AND METHODS FOR TREATING VIRAL INFECTIONS” (priority 2020, published 2024).

Read-outs that look alike come from different tables or passages of the source.

Take `COc1c(O)cc2oc(-c3cc(CC=C(C)C)c(O)c(CCC(C)CO)c3)c(OC)c(=O)c2c1O` (centres unmarked) [5′-Prenylaliarin]: the remaining activity at 17 µM under setting [1] was over 80%. The same measure, in the same setting: under `CC(C)=CCc1c(O)c(CC=C(C)C)c2occ(-c3ccc(O)cc3)c(=O)c2c1O` [6,8-Diprenylgenistein] stands 10 to 80%; under `CC(C)=CCc1c(O)c(CC=C(C)C)c2c(c1O)C(=O)C[C@@H](c1ccc(O)cc1)O2` [6,8-Diprenylnaringenin], over 80%. `CC(C)=CCc1c(O)c(CC=C(C)C)c2occ(-c3ccc(O)c(O)c3)c(=O)c2c1O` [6,8-Diprenylorobol]: under setting [1], the remaining activity at 17 µM is over 80%. As for `CC(C)=CCC/C(C)=C/Cc1c(O)cc2c(c1O)C(=O)C[C@@H](c1ccc(O)cc1)O2` [6-Geranylnaringenin], the remaining activity at 17 µM under setting [1] was over 80%.

Take `CC(C)=CCc1c(O)c(C)c(O)c2c1O[C@H](c1ccc(O)cc1)CC2=O` [6-Methyl-8-prenylnaringenin]: the remaining activity at 17 µM under setting [1] was under 10%. As for `CC(C)=CCc1c(O)cc2c(c1O)C(=O)C[C@@H](c1ccc(O)cc1)O2` [6-Prenylnaringenin], the remaining activity at 17 µM under setting [1] is over 80%. `COc1c(-c2ccc(O)c(O)c2)oc2cc(O)c(CC=C(C)C)c(O)c2c1=O` [6-Prenylquercetin-3-methylether]: the remaining activity at 17 µM under setting [1] was over 80%. `COc1c(O)cc2oc(-c3ccc(O)c(O)c3)cc(=O)c2c1O` [6-methoxyluteolin] registered an IC50 (IC50) of 4 µM. For the same molecule, the remaining activity at 17 µM under setting [1] is 10 to 80%.

For the molecule `CC(C)=CCc1cc(-c2cc(=O)c3c(O)cc(O)c(CC=C(C)C)c3o2)ccc1O` [8,3′-Diprenylapigenin], the remaining activity at 17 µM under setting [1] is under 10%. On to `C=C(C)C(CC=C(C)C)Cc1c(O)cc(O)c2c(=O)c(O)c(-c3ccc(O)cc3)oc12` (centres unmarked) [8-Lavandulylkaempferol], for which, where the note is “compound at 17 μM, duplicates, 20 min pre-incubation, read-out: Activity (% enzyme activity by fluorescence relative to initial enzyme activity)”, the remaining activity at 17 µM is 10 to 80%. As to `CC(C)=CCc1c(O)ccc2c(=O)c(-c3ccc(O)cc3)coc12` [8-Prenyldaidzein], the remaining activity at 17 µM under setting [1] was over 80%. Same read-out and setting: under `CC(C)=CCc1c(O)cc(O)c2c(=O)c(O)c(-c3ccc(O)cc3)oc12` [8-Prenylkaempferol] stands over 80%. With `CC(C)=CCc1c(O)c(CC=C(C)C)c2occ(-c3ccc(O)cc3O)c(=O)c2c1O` [8-Prenylluteone], under setting [1], the remaining activity at 17 µM was over 80%. Take `CC(C)=CCc1c(O)cc(O)c2c1O[C@H](c1ccc(O)cc1)CC2=O` [8-Prenylnaringenin]: the remaining activity at 17 µM under setting [1] was 10 to 80%. Take `CC(C)=CCc1cc([C@@H]2CC(=O)c3ccc(O)c(CC=C(C)C)c3O2)cc(CC=C(C)C)c1O` [(−)-Sophoranone]: the remaining activity at 17 µM under setting [1] lay in the range of 10 to 80%. The same measure, in the same setting: under `CC(C)=CCc1c(-c2ccc(O)cc2O)oc2cc(O)cc(O)c2c1=O` [Albanin A] stands over 80%; under `CC(C)=CCc1c(O)cc2oc(-c3ccc(O)cc3O)cc(=O)c2c1O` [Artocarpesin], over 80%; under `COc1cc2oc(-c3ccc(O)cc3O)c(CC=C(C)C)c(=O)c2c(O)c1/C=C/C(C)C` [Artocarpin], over 80%. `CC(C)=CCc1c(O)c(CC=C(C)C)c2oc3c(c(=O)c2c1O)C(C=C(C)C)Oc1cc(O)c(O)cc1-3` (centres unmarked) [Artoheterophyllin B]: under setting [1], the remaining activity at 17 µM is over 80%. `CC(C)=CCc1c2c(c(O)c3c(=O)c(-c4ccc(O)c(O)c4)coc13)C=CC(C)(C)O2` [Auriculasin]: under setting [1], the remaining activity at 17 µM was over 80%. Consider `CC(C)=CCc1c(O)cc(O)c2c(=O)c(O[C@@H]3O[C@@H](C)[C@H](O)[C@@H](O)[C@H]3O)c(-c3ccc(O)cc3)oc12` [Baohuoside II], for which the remaining activity at 17 µM under setting [1] was over 80%. Same read-out and setting: under `COc1ccc(-c2oc3c(CC=C(C)C)c(O)cc(O)c3c(=O)c2O[C@@H]2O[C@@H](C)[C@H](O)[C@@H](O)[C@H]2O)cc1` [Baohuoside I] stands 10 to 80%. As for `COc1ccc(-c2oc3c(CC=C(C)C)c(O)cc(O)c3c(=O)c2O[C@@H]2O[C@@H](C)[C@H](O[C@@H]3O[C@H](CO)[C@@H](O)[C@H](O)[C@H]3O)[C@@H](O)[C@H]2O)cc1` [Baohuoside VII], under setting [1], the remaining activity at 17 µM was in the range of 10 to 80%.

In the case of `CC(C)=CCc1c(O[C@@H]2O[C@H](CO)[C@@H](O)[C@H](O)[C@H]2O)cc(O)c2c(=O)c(O[C@@H]3O[C@@H](C)[C@H](O)[C@@H](O)[C@H]3O[C@@H]3O[C@@H](C)[C@H](O)[C@@H](O)[C@H]3O)c(-c3ccc(O)cc3)oc12` [Baohuoside V], the remaining activity at 17 µM under setting [1] fell in the range of 10 to 80%. Regarding `CC(C)=CCc1cc2c(cc1O)O[C@H](c1ccc(O)cc1)CC2=O` [Bavachin], under setting [1], the remaining activity at 17 µM was over 80%. On the same count and under the same terms, under `COc1cc2c(cc1CC=C(C)C)C(=O)C[C@@H](c1ccc(O)cc1)O2` [Bavachinin] stands over 80%; under `COc1c(C2=Cc3ccc(O)cc3OC2)ccc(O)c1CC=C(C)C` [Bidwillol A], over 80%. Regarding `C[C@@H]1O[C@@H](OC[C@H]2O[C@@H](Oc3c(-c4ccc(O)cc4)oc4cc(O)cc(O)c4c3=O)[C@H](O)[C@@H](O)[C@H]2O)[C@H](O)[C@H](O)[C@H]1O` [Biorobin], under setting [2], the “Activity (% enzyme activity by fluorescence relative to initial enzyme activity)” value was “+++ (<10% enzyme activity as indicated by fluorescence measurements)”. Also, the IC50 (read-out: IC50) was found to be 7 µM. As for `CC(C)=CCc1cc(-c2oc3c(CC=C(C)C)c(O)cc(O)c3c(=O)c2O)ccc1O` [Broussoflavonol F], the remaining activity at 17 µM under setting [1] was over 80%. Same read-out and setting: the result for `COc1ccc(-c2oc3c(CC=C(C)C)c(O[C@@H]4O[C@H](CO)[C@@H](O)[C@H](O)[C@H]4O)cc(O)c3c(=O)c2O[C@@H]2O[C@@H](C)[C@H](OC(C)=O)[C@@H](O)[C@H]2O[C@@H]2O[C@H](CO)[C@@H](O)[C@H](OC(C)=O)[C@H]2O)cc1` [Caohuoside E] reads over 80%; that for `CC(C)=CCc1cc([C@H]2Oc3cc(O)cc(O)c3C(=O)[C@@H]2O)cc(CC=C(C)C)c1O` [Cathayanon H], over 80%; that for `CC(C)=CCC/C(C)=C/Cc1cc(-c2coc3cc(O)ccc3c2=O)ccc1O` [Corylifol A], over 80%. As for `CC(C)=CCc1c(O)ccc2c(=O)cc(-c3ccc(O)c(O)c3)oc12` [Corylifol C], the remaining activity at 17 µM under setting [1] was over 80%. On the same count and under the same terms, the result for `CC(C)=CCc1c(O)cc2c(c1O)C(=O)C[C@@H](c1ccc(O)cc1O)O2` [Cudraflavanone B] reads over 80%; that for `CC(C)=CCc1c(-c2ccc(O)cc2O)oc2cc3c(c(O)c2c1=O)C=CC(C)(C)O3` [Cudraflavone B], 10 to 80%. Same read-out and setting: under `CC(C)=CC1Oc2cc(O)ccc2-c2oc3cc(O)cc(O)c3c(=O)c21` (centres unmarked) [Cyclocommunol] stands over 80%; under `CC(C)=CCc1c2c(c(O)c3c(=O)c4c(oc13)-c1cc(O)c(O)cc1OC4C=C(C)C)C=CC(C)(C)O2` (centres unmarked) [Cycloheterophyllin], over 80%; under `CC(C)=CC1Oc2cc(O)ccc2-c2oc3c4c(cc(O)c3c(=O)c21)OC(C)(C)C=C4` (centres unmarked) [Cyclomorusin], over 80%.

Regarding `CC(C)=CCc1c(O)cc(O)c2c(=O)c3c(oc12)-c1ccc(O)cc1OC3C=C(C)C` (centres unmarked) [Cyclomulberrin], the remaining activity at 17 µM under setting [1] was 10 to 80%. Take `COc1c2c(cc(O)c1CC=C(C)C)OCC(c1ccc(O)cc1O)=C2` [Dehydroglyasperin C]: the remaining activity at 17 µM under setting [1] was over 80%.

`C=C(C)C(O)Cc1cc(-c2coc3cc(O)c(CC=C(C)C)c(O)c3c2=O)ccc1O` (centres unmarked) [Derrisisoflavone B]: the remaining activity at 17 µM under setting [1] was over 80%. On to `CC(C)=CCc1c(O)ccc([C@H]2COc3cc(O)cc(O)c3C2=O)c1O` [Dihydrolicoisoflavone], for which, under setting [1], the remaining activity at 17 µM is over 80%.

Consider `O=C1c2c(O)cc(O)cc2O[C@H](c2ccc(O)cc2O)[C@H]1O` [Dihydromorin], for which the remaining activity at 17 µM under setting [1] was over 80%. Same read-out and setting: under `C=C(C)C(O)Cc1cc(-c2oc3cc(O)c(OC)c(O)c3c(=O)c2OC)cc(CCC(C)CO)c1O` (centres unmarked) [Dodoviscin A] stands over 80%; under `COc1c(-c2cc(CC=C(C)C)c(O)c(CCC(C)CO)c2)oc2cc(O)cc(O)c2c1=O` (centres unmarked) [Dodoviscin H], over 80%. Same read-out and setting: under `COc1cc(-c2oc3cc(O)cc(O)c3c(=O)c2OC)cc(CC=C(C)C)c1O` [Dodoviscin J] stands over 80%; under `COc1c(O)cc2oc(-c3cc(CC=C(C)C)c4c(c3)CC(O)C(C)(C)O4)c(OC)c(=O)c2c1O` (centres unmarked) [Dodovisone A], over 80%.

As for `COc1cc2c(c3c1CC[C@@H](c1ccccc1)O3)[C@H]1c3c(cc(O)c(C)c3OC)O[C@](c3ccccc3)(O2)[C@@H]1O` [Dracoflavan B1], the “Activity (% enzyme activity by fluorescence relative to initial enzyme activity)” value under setting [2] was “++ (enzyme activity as indicated by fluorescence measurements ≥10% and <80%)”. For the same molecule, the IC50 (read-out: IC50) was 17 µM.

As for `COc1ccc(-c2oc3c(CC=C(C)C)c(O[C@@H]4O[C@H](CO)[C@@H](O)[C@H](O)[C@H]4O)cc(O)c3c(=O)c2O[C@@H]2O[C@@H](C)[C@H](O)[C@@H](O[C@@H]3O[C@H](CO)[C@@H](O)[C@H](O)[C@H]3O)[C@H]2O)cc1` [Epimedin A1], the remaining activity at 17 µM under setting [1] is over 80%. On the same count and under the same terms, under `COc1ccc(-c2oc3c(CC=C(C)C)c(O[C@@H]4O[C@H](CO)[C@@H](O)[C@H](O)[C@H]4O)cc(O)c3c(=O)c2O[C@@H]2O[C@@H](C)[C@H](O)[C@@H](O)[C@H]2O[C@@H]2O[C@H](CO)[C@@H](O)[C@H](O)[C@H]2O)cc1` [Epimedin A] stands 10 to 80%. Same read-out and setting: the result for `COc1ccc(-c2oc3c(CC=C(C)C)c(O[C@@H]4O[C@H](CO)[C@@H](O)[C@H](O)[C@H]4O)cc(O)c3c(=O)c2O[C@@H]2O[C@@H](C)[C@H](O[C@@H]3OC[C@@H](O)[C@H](O)[C@H]3O)[C@@H](O)[C@H]2O)cc1` [Epimedin B1] reads 10 to 80%; that for `COc1ccc(-c2oc3c(CC=C(C)C)c(O[C@@H]4O[C@H](CO)[C@@H](O)[C@H](O)[C@H]4O)cc(O)c3c(=O)c2O[C@@H]2O[C@@H](C)[C@H](O)[C@@H](O)[C@H]2O[C@@H]2OC[C@@H](O)[C@H](O)[C@H]2O)cc1` [Epimedin B], 10 to 80%.
